Laboratory results reported in patent US20240408099A1, “COMBINATION […] OF KRAS G12D INHIBITORS WITH Pan ErbB FAMILY INHIBITORS” (MIRATI THERAPEUTICS, INC., priority 2021, published 2024).

Assays:
AGS = assay: Composite Synergy Score, Cell-Titer Glo 72 hours, dose matrix with MRTX1133; format: cell-based; conditions: combined with MRTX1133
Experimental: (§1) Assays for determining the synergy score for the pairwise combinations for each cell line were performed in triplicate. Three 96-well plates plus an additional 4 wells of a separate 96-well control plate for determining baseline luminescence were seeded with 2000 cells/well of a particular cell line in a total volume of 90 μl of a suitable growth medium for that cell line, e.g., RPMI 1640 medium supplemented with 10% FBS and any cell line specific reagents need for growth. The plates were incubated overnight at 37° C. in a 5% CO2 atmosphere.
(§2) To each of the designated baseline wells, 30 μl of Cell-Titer Glo reagent (CTG; Promega Corporation) was added to each well and the plates were incubated for 20 min with shaking at room temperature. Baseline luminescence was quantitated using a BMG ClarioStar multimode plate reader according to the manufacturer's instructions.
(§3) A series of working stock 1000× drug dilutions in 100% DMSO was prepared that includes an 8 point single agent dilution of MRTX 1133 and a 5-point single agent dilution of the pan ErbB family inhibitor. The dilutions used for MRTX1133 and the pan ErbB family inhibitor varied for each individual compound but were in the range of 3- to 6-fold/serial dilution.
(§4) A 10× intermediate dosing plate was prepared in serum free RPMI medium that contains arrayed single agent dilutions MRTX1133 or the pan ErbB family inhibitor. In addition, a matrix of 40 dilution combinations of MRTX1133 and the pan ErbB family inhibitor was prepared as test samples.
(§5) To each corresponding well of the three 96-well plates seeded with the appropriate cell line above, 10 μl of each 10× single agent and the 40 combinations of the dose matrix was added and the plates were incubated for 72 hours at 37 C in 5% CO2 atmosphere. A 30 μl aliquot of Cell-Titer Glo reagent (CTG) was added to each test well, the plates were incubated for 20 min with shaking at room temperature, and luminescence was quantitated using a BMG ClarioStar multimode plate reader according to the manufacturer's instructions.
(§6) The output of the data from each mathematical model is the assignment of a relative synergy score. The data reported in Table 1 are the aggregate sum of the Loewe additivity, Bliss independence, Highest Single Agent and ZIP scores (“Composite Synergy Score”).
(§7) The output of the data from each mathematical model is the assignment of a relative synergy score.

Panc0203 = assay: as above; format: cell-based; conditions: combined with MRTX1133
Experimental: as §1, §2, §3, §4, §5, §6, §7

Panc1005 = assay: as above; format: cell-based; conditions: combined with MRTX1133
Experimental: as §1, §2, §3, §4, §5, §6, §7

Panc1 = assay: as above; format: cell-based; conditions: combined with MRTX1133
Experimental: as §1, §2, §3, §4, §5, §6, §7

SNU407 = assay: as above; format: cell-based; conditions: combined with MRTX1133
Experimental: as §1, §2, §3, §4, §5, §6, §7

SW1990 = assay: as above; format: cell-based; conditions: combined with MRTX1133
Experimental: as §1, §2, §3, §4, §5, §6, §7

AsPC-1 cells = assay: AsPC-1 TGI-42 pancreatic cancer xenograft, tumor volumes; format: in vivo, nude/nude mice; conditions: 12.5 mg/kg QD
Experimental: (§8) Immunocompromised nude/nude mice are inoculated in the right hind flank with cells harboring a KRas G12D mutation. When tumor volumes reach between 200-400 mm^3 in size, the mice are divided into four to five groups of 5 mice each. The first group is administered vehicle only. […] The fourth or last groups are administered the single agent dose of the KRas G12D inhibitor using the twice daily schedule and/or the 2 sequential days followed by 5 days off schedule in combination with the single agent dose of one of the EGFR inhibitors. The treatment period varies from cell line to cell line but typically is between 15-40 days. Tumor volumes are measured using a caliper every two-three days and tumor volumes are calculated by the formula: […].
(§9) 20 to 30 nude/nude mice per study were inoculated in the right hind limb with 5×10^6 LS180 cells, AsPC-1 cells, GP2D cells, Panc 02.03 cells, SW1990 cells, or SNU-1033 cells.
Experimental Procedures. 30 nude/nude mice were inoculated with AsPC-1 cells in the right hind flank. When the tumors reached ˜300 mm^3 six treatment groups were established with five mice per group.

Panc 02.03 = Panc 02.03 TGI-43 pancreatic cancer xenograft (Table 5), tumor volumes; format: in vivo, nude/nude mice; conditions: for Average Tumor Volumes: 12.5 mg/kg QD (once daily)
Experimental: as §8, with “The treatment period varies from cell line to cell line but typically is between 15-40 days.” left out
20 to 30 nude/nude mice per study were inoculated in the right hind limb with 5×10^6 LS180 cells, AsPC-1 cells, GP2D cells, Panc 02.03 cells, SW1990 cells, or SNU-1033 cells. […]

SW1990 cells = assay: SW1990 TGI MDS #200407-807 pancreatic cancer xenograft, tumor volumes; format: in vivo, nude/nude mice; conditions: for Average Tumor Volumes: 12.5 mg/kg QD once daily
Experimental: as §8, with “The treatment period varies from cell line to cell line but typically is between 15-40 days.” left out
as §9
Experimental Procedures. 30 nude/nude mice were inoculated with SW1990 cells in the right hind flank. When the tumors reached ˜300 mm^3 six treatment groups were established with five mice per group.

Question: Which results are given for `CN(C)C/C=C/C(=O)Nc1cc2c(Nc3ccc(F)c(Cl)c3)ncnc2cc1OC1CCOC1` (stereo not shown) [Afatinib, (E)-N-(4-((3-chloro-4-fluorophenyl)amino)-7-((tetrahydrofuran-3-yl)oxy)quinazolin-6-yl)-4-(dimethylamino)but-2-enamide, reference compound]?
Answer: Composite Synergy Score (AGS): 36; Composite Synergy Score (Panc0203): 54; Composite Synergy Score (Panc1005): 37; Composite Synergy Score (Panc1): −6; Composite Synergy Score (SNU407): 23; Composite Synergy Score (SW1990): 57; tumor growth inhibition (AsPC-1 cells; single agent, Day 34): 11%; Average Tumor Volumes (AsPC-1 cells; Study Day 1): 328.208 mm^3; Average Tumor Volumes (AsPC-1 cells; Study Day 6): 463.11 mm^3; Average Tumor Volumes (AsPC-1 cells; Study Day 9): 641.776 mm^3; Average Tumor Volumes (AsPC-1 cells; Study Day 13): 720.894 mm^3; Average Tumor Volumes (AsPC-1 cells; Study Day 16): 768.716 mm^3; Average Tumor Volumes (AsPC-1 cells; Study Day 20): 964.434 mm^3; Average Tumor Volumes (AsPC-1 cells; Study Day 23): 1002.602 mm^3; Average Tumor Volumes (AsPC-1 cells; Study Day 27): 1211.064 mm^3; Average Tumor Volumes (AsPC-1 cells; Study Day 30): 1289.494 mm^3; Average Tumor Volumes (AsPC-1 cells; Study Day 34): 1252.045 mm^3; Average Tumor Volumes (Panc 02.03; Study Day 1): 331.548 mm^3; Average Tumor Volumes (Panc 02.03; Study Day 4): 361.83 mm^3; Average Tumor Volumes (Panc 02.03; Study Day 8): 398.444 mm^3; Average Tumor Volumes (Panc 02.03; Study Day 11): 470.498 mm^3; Average Tumor Volumes (Panc 02.03; Study Day 15): 660.352 mm^3; Average Tumor Volumes (Panc 02.03; Study Day 18): 784.04 mm^3; Average Tumor Volumes (Panc 02.03; Study Day 22): 904.724 mm^3; tumor growth inhibition (Panc 02.03; 12.5 mg/kg daily, single agent, Day 22): 27%; tumor growth inhibition (SW1990 cells; 12.5 mg/kg QD daily, single agent, Day 23): 20%; Average Tumor Volumes (SW1990 cells; Study Day 2): 455.54 mm^3; Average Tumor Volumes (SW1990 cells; Study Day 6): 536.86 mm^3; Average Tumor Volumes (SW1990 cells; Study Day 9): 624.98 mm^3; Average Tumor Volumes (SW1990 cells; Study Day 13): 698.56 mm^3; Average Tumor Volumes (SW1990 cells; Study Day 16): 778.74 mm^3; Average Tumor Volumes (SW1990 cells; Study Day 20): 1141.575 mm^3; Average Tumor Volumes (SW1990 cells; Study Day 23): 1293.5 mm^3; Average Tumor Volumes (SW1990 cells; Study Day −1): 363.4 mm^3
